Measured values: patent US20090176731A1 (priority 2005, published 2009)
Like-named read-outs stand apart in the source and are kept apart here.

Key:
[1] = tested on: range of models; conditions: once-daily oral administration; cited from earlier work
[2] = tested on: HUVEC; experiment: HUVEC assay, endothelial cell proliferation (WO 00/47212); assay type: cell-based; conditions: Homo sapiens
[3] = tested on: Calu-6 tumour xenograft; experiment: in vivo solid tumour model, Calu-6 tumour xenograft (WO 00/47212); conditions: once-daily oral, 28 days

COc1cc2c(Oc3ccc4[nH]c(C)cc4c3F)ncnc2cc1OCCCN1CCCC1 [AZD2171, 4-(4-fluoro-2-methyl-1H-indol-5-yloxy)-6-methoxy-7-(3-(pyrrolidin-1-yl)propoxy)quinazoline]
anti-tumour activity in a range of models [1]: broad-spectrum anti-tumour activity
IC50 ([2]; HUVEC, basal (unstimulated) proliferation, read-out: IC50 for inhibition of basal endothelial cell proliferation): > 500 nM
IC50 ([2]; VEGF-stimulated, HUVEC assay, read-out: IC50 for inhibition of VEGF-stimulated endothelial cell proliferation): 0.4 ± 0.2 nM
inhibition of growth of Calu-6 tumour xenograft ([3]; 1.5 mg/kg/day, P<0.01): 49%
inhibition of growth of Calu-6 tumour xenograft ([3]; 3 mg/kg/day, P<0.00001): 69%
inhibition of growth of Calu-6 tumour xenograft ([3]; 6 mg/kg/day, P<0.00001): 91%
